US20160237059A1, “HETEROCYCLIC SUBSTITUTED TRIFLUOROMETHYL PYRIMIDINONES AND THEIR USE” (BAYER PHARMA AKTIENGESELLSCHAFT, priority 2013, published 2016)

Experiments:
human CCR2 = target: T1, human CCR2 (Homo sapiens, UniProt P41597); assay: Functional Ca2+ release test (B-1); assay type: cell-based; conditions: Chem-1 cell line transfected with human CCR2; 50% inhibition of the MCP-1 effect, MCP-1 at EC50 (about 5 nM); in some cases means of several determinations
T1 construct: host or cells: Chem-1 cell line
T1 sequence (P41597 1-360 isoform P41597-2): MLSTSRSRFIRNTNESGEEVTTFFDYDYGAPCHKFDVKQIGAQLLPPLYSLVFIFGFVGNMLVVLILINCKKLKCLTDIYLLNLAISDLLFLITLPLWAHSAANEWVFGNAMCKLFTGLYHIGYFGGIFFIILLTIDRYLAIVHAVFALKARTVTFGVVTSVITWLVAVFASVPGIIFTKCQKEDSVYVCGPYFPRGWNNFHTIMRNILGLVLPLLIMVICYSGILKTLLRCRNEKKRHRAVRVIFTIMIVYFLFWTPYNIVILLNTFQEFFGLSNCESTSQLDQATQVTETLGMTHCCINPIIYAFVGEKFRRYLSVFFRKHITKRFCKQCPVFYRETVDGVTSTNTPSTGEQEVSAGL
Summary of the method: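 Chem-1 cells expressing human CCR2, loaded with Fluo-4 for 60 min at 37° C, were preincubated 10 min with compound (10-point, 1:3.16 dilutions), then stimulated with MCP-1 at its predetermined EC50 (about 5 nM). Ca2+ release was monitored for 120 s. IC50 came from a 4-parameter Hill fit.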

murine CCR2 = target: T2, murine CCR2 (Mus musculus, UniProt P51683); assay: Functional β-arrestin recruiting test with human MCP-1 (B-2a); assay type: cell-based; conditions: U2OS β-arrestin cell line transfected with murine CCR2; agonist human MCP-1 at EC50 (about 3 nM); in some cases means of several determinations
T2 construct: host or cells: U2OS β-arrestin cell line
T2 sequence (P51683 whole entry): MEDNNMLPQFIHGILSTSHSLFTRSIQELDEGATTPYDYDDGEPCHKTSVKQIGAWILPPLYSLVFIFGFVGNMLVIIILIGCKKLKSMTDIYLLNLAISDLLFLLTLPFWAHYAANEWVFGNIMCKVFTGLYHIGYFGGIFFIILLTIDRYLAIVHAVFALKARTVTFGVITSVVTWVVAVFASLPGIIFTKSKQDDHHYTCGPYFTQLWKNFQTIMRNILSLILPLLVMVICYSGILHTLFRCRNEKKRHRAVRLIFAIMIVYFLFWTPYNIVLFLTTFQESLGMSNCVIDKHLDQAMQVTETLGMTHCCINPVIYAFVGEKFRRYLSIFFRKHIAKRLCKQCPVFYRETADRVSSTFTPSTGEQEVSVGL
Procedure: The antagonistic action of test substances on CCR2 was determined in a β-arrestin test. The PathHunter β-arrestin GPCR test system (DiscoveRx Corporation, Ltd.) is a cell-based functional method for detecting binding of β-arrestin to an activated receptor. The molecular basis is a […] complementation measured by the enzymatic conversion of a chemiluminescent substrate. The test cell used was a U2OS β-arrestin cell line transfected with murine CCR2 (93-0543C3, DiscoveRx Corporation, Ltd.).
The test substances were dissolved in dimethyl sulphoxide (DMSO) at a concentration of 10 mM and serially diluted with DMSO in steps of 1:3.16 for a 10-point dose/activity analysis. According to the desired test concentrations, the substances were pre-diluted in Tyrode with 2 mM CaCl2 and 0.05% BSA.
The cells, cultivated in MEM Eagle (supplemented with 10% FCS, 50 U/ml of penicillin, 50 μg/ml of streptomycin, 250 μg/ml of hygromycin and 500 μg/ml of geniticin), were sown at 2000 cells/25 μl in 384 well, μCLEAR/black cell culture plates from Greiner (#781092) and incubated at 37° C. for 24 h. The sowing medium consisted of Opti-MEM (supplemented with 1% FCS, 50 U/ml of penicillin and 50 μg/ml of streptomycin). The cells were pre-incubated for 10 min with 10 μl of the test substances diluted in buffer, and 10 μl of agonist solution [human MCP-1 (PeproTech, #300-04) in Tyrode with 0.05% BSA) were then added. The human MCP-1 was employed at the concentration which corresponds to the EC50 which had been determined in a preliminary test (usually about 3 nM). After 90 min of incubation at 37° C., the solution was removed, and recruitment of β-arrestin to CCR2 was detected with the aid of the PathHunter detection reagent (93-001, DiscoveRx Corporation, Ltd.) according to the instructions of the manufacturer. Luminescence was measured after an incubation time of 60 min using a proprietary luminescence imaging measuring instrument. The molar concentration of the test substance which caused 50% inhibition of the MCP-1 effect (IC50) was determined using a 4-parameter logistic function (Hill function).

Compound	IC50 (human CCR2)	IC50 (murine CCR2)
Nc1nc[nH]c1-c1nc(C(F)(F)F)c(Oc2ccc(Cl)c(Cl)c2)c(=O)[nH]1 [Example 64, 2-(4-amino-1H-imidazol-5-yl)-5-(3,4-dichlorophenoxy)-6-(trifluoromethyl)pyrimidin-4(3H)-one]	320 nM	6500 nM
O=c1[nH]c(-c2cc(O)ccn2)nc(C(F)(F)F)c1Oc1ccc(Cl)c(C(F)(F)F)c1 [Example 33, 5-[4-chloro-3-(trifluoromethyl)phenoxy]-2-(4-hydroxypyridin-2-yl)-6-(trifluoromethyl)pyrimidin-4(3H)-one]	46 nM	650 nM
Cc1n[nH]c(Cc2nc(C(F)(F)F)c(Cc3ccc(Cl)c(Cl)c3)c(=O)[nH]2)n1 [Example 99, 5-(3,4-Dichlorobenzyl)-2-[(3-methyl-1H-1,2,4-triazol-5-yl)methyl]-6-(trifluoromethyl)pyrimidin-4(3H)-one]	72 nM	630 nM
COc1cccc(Nc2nc(C(F)(F)F)c(Oc3ccc(Cl)c(C(F)(F)F)c3)c(=O)[nH]2)n1 [Example 100, 5-[4-Chloro-3-(trifluoromethyl)phenoxy]-2-[(6-methoxypyridin-2-yl)amino]-6-(trifluoromethyl)pyrimidin-4(3H)-one]	65 nM	920 nM
O=C1NCCN1c1nc(C(F)(F)F)c(Cc2ccc(Cl)c(Cl)c2)c(=O)[nH]1 [Example 111, 5-(3,4-Dichlorobenzyl)-2-(2-oxoimidazolidin-1-yl)-6-(trifluoromethyl)pyrimidin-4(3H)-one]	59 nM	360 nM
O=c1[nH]c(Cc2ncn[nH]2)nc(C(F)(F)F)c1Cc1ccc(Cl)c(Cl)c1 [Example 92, 5-(3,4-dichlorobenzyl)-2-(1H-1,2,4-triazol-5-ylmethyl)-6-(trifluoromethyl)pyrimidin-4(3H)-one]	57 nM	220 nM
COc1cccnc1Nc1nc(C(F)(F)F)c(Oc2ccc(Cl)c(C(F)(F)F)c2)c(=O)[nH]1 [Example 103, 5-[4-chloro-3-(trifluoromethyl)phenoxy]-2-[(3-methoxypyridin-2-yl)amino]-6-(trifluoromethyl)pyrimidin-4(3H)-one]	50 nM	370 nM
Nc1[nH]ncc1-c1nc(C(F)(F)F)c(Cc2ccc(Cl)c(Cl)c2)c(=O)[nH]1 [Example 60, 2-(5-amino-1H-pyrazol-4-yl)-5-(3,4-dichlorobenzyl)-6-(trifluoromethyl)pyrimidin-4(3H)-one]	91 nM	180 nM
Cc1cc(Nc2nc(C(F)(F)F)c(Oc3ccc(Cl)c(Cl)c3)c(=O)[nH]2)on1 [Example 109]	59 nM	480 nM
O=c1[nH]c(Cn2cncn2)nc(C(F)(F)F)c1Cc1ccc(Cl)c(Cl)c1 [Example 173, 5-(3,4-dichlorobenzyl)-2-(1H-1,2,4-triazol-1-ylmethyl)-6-(trifluoromethyl)pyrimidin-4(3H)-one]	260 nM	980 nM
O=c1[nH]nc(Cc2nc(C(F)(F)F)c(Cc3ccc(Cl)c(Cl)c3)c(=O)[nH]2)[nH]1 [Example 90, 5-(3,4-Dichlorobenzyl)-2-[(5-oxo-4,5-dihydro-1H-1,2,4-triazol-3-yl)methyl]-6-(trifluoromethyl)pyrimidin-4(3H)-one]	58 nM	620 nM
COc1cccc(Nc2nc(C(F)(F)F)c(Oc3ccc(Cl)c(Cl)c3)c(=O)[nH]2)n1 [Example 101, 5-(3,4-dichlorophenoxy)-2-[(6-methoxypyridin-2-yl)amino]-6-(trifluoromethyl)pyrimidin-4(3H)-one]	430 nM	11000 nM

Compounds with a lower IC50 (human CCR2), results first:

IC50 (human CCR2)	IC50 (murine CCR2)	Compound
9.2 nM	86 nM	O=c1[nH]c(-c2noc(C(F)(F)F)n2)nc(C(F)(F)F)c1Oc1ccc(Cl)c(Cl)c1 [Example 84, 5-(3,4-Dichlorophenoxy)-6-(trifluoromethyl)-2-[5-(trifluoromethyl)-1,2,4-oxadiazol-3-yl]pyrimidin-4(3H)-one]
0.7 nM	19 nM	O=c1[nH]c(-c2cc[nH]n2)nc(C(F)(F)F)c1Cc1ccc(Cl)c(C(F)(F)F)c1 [Example 72, 5-[4-chloro-3-(trifluoromethyl)benzyl]-2-(1H-pyrazol-3-yl)-6-(trifluoromethyl)pyrimidin-4(3H)-one]
28 nM	230 nM	O=c1[nH]c(-c2ncc(C(F)(F)F)cc2Cl)nc(C(F)(F)F)c1Cc1ccc(Cl)c(Cl)c1 [Example 21, 2-[3-chloro-5-(trifluoromethyl)pyridin-2-yl]-5-(3,4-dichlorobenzyl)-6-(trifluoromethyl)pyrimidin-4(3H)-one]
13 nM	120 nM	CCOC(=O)c1nc(-c2nc(C(F)(F)F)c(Oc3ccc(Cl)c(Cl)c3)c(=O)[nH]2)no1 [Example 260, Ethyl 3-[5-(3,4-dichlorophenoxy)-6-oxo-4-(trifluoromethyl)-1,6-dihydropyrimidin-2-yl]-1,2,4-oxadiazole-5-carboxylate x N,N-diisopropylethylamine]
14 nM	54 nM	CC1(C)NC(c2nc(C(F)(F)F)c(Oc3ccc(Cl)c(C(F)(F)F)c3)c(=O)[nH]2)=NO1 [Example 87, 5-[4-Chloro-3-(trifluoromethyl)phenoxy]-2-(5,5-dimethyl-4,5-dihydro-1,2,4-oxadiazol-3-yl)-6-(trifluoromethyl)pyrimidin-4(3H)-one]
0.2 nM	4.7 nM	O=c1[nH]c(-c2cc[nH]n2)nc(C(F)(F)F)c1Cc1ccc(Cl)c(Cl)c1 [Example 50, 5-(3,4-dichlorobenzyl)-2-(1H-pyrazol-3-yl)-6-(trifluoromethyl)pyrimidin-4(3H)-one]
31 nM	96 nM	N=c1[nH]c(-c2nc(C(F)(F)F)c(Oc3ccc(Cl)c(Cl)c3)c(=O)[nH]2)no1 [Example 85, 5-(3,4-Dichlorophenoxy)-2-(5-imino-4,5-dihydro-1,2,4-oxadiazol-3-yl)-6-(trifluoromethyl)pyrimidin-4(3H)-one]
6.6 nM	220 nM	Nc1cccc(-c2nc(C(F)(F)F)c(Oc3ccc(Cl)c(Cl)c3)c(=O)[nH]2)n1 [Example 43, 2-(6-aminopyridin-2-yl)-5-(3,4-dichlorophenoxy)-6-(trifluoromethyl)pyrimidin-4(3H)-one]
33 nM	535 nM	O=c1[nH]c(-c2ccc3ccccc3n2)nc(C(F)(F)F)c1Oc1ccc(Cl)c(Cl)c1 [Example 178]
3.5 nM	110 nM	O=c1[nH]c(-c2ccccn2)nc(C(F)(F)F)c1Cc1ccc(Cl)c(Cl)c1 [Example 1, 5-(3,4-Dichlorobenzyl)-2-(pyridin-2-yl)-6-(trifluoromethyl)pyrimidin-4(3H)-one]
41 nM	730 nM	Cn1cc(Nc2nc(C(F)(F)F)c(Oc3ccc(Cl)c(Cl)c3)c(=O)[nH]2)cn1 [Example 110, 5-(3,4-dichlorophenoxy)-2-[(1-methyl-1H-pyrazol-4-yl)amino]-6-(trifluoromethyl)pyrimidin-4(3H)-one]
30 nM	160 nM	O=c1[nH]c(Cc2ccno2)nc(C(F)(F)F)c1Cc1ccc(Cl)c(Cl)c1 [Example 96, 5-(3,4-dichlorobenzylylmethyl)-6-(trifluoromethyl)pyrimidin-4(3H)-one]
22 nM	270 nM	Cc1noc(Cc2nc(C(F)(F)F)c(Cc3ccc(Cl)c(Cl)c3)c(=O)[nH]2)n1 [Example 91, 5-(3,4-Dichlorobenzyl)-2-[(3-methyl-1,2,4-oxadiazol-5-yl)methyl]-6-(trifluoromethyl)pyrimidin-4(3H)-one]
4.8 nM	410 nM	5-(3,4-dichlorobenzyl-2-(2-methoxypyridin-3-yl)-6-(trifluoromethyl)pyrimidin-4(3H)-one [Example 41]
